# In ChEMBL document CHEMBL5260825, “Chemical Constituents of Bryophytes: Structures and Biological Activity” (J Nat Prod, 2018):
# Values joined by “and” are separate entries in the source; they are usually repeats but may differ in a detail not shown here. Equal values may be shown once.
# Key:
# [1] = test system: RAW264.7; assay: Inhibition of LPS-induced NO production in mouse RAW264.7 cells; type: functional, cell-based
# [2] = Toxicity in brine shrimp assessed as lethality; settings: artemia salina
# [3] = target: T1, Polyunsaturated fatty acid 5-lipoxygenase (Homo sapiens) (UniProt P09917); assay: Inhibition of ALOX5 (unknown origin) at 0.000001 M relative to control; settings: dose 1 µM
# T1 sequence (whole entry): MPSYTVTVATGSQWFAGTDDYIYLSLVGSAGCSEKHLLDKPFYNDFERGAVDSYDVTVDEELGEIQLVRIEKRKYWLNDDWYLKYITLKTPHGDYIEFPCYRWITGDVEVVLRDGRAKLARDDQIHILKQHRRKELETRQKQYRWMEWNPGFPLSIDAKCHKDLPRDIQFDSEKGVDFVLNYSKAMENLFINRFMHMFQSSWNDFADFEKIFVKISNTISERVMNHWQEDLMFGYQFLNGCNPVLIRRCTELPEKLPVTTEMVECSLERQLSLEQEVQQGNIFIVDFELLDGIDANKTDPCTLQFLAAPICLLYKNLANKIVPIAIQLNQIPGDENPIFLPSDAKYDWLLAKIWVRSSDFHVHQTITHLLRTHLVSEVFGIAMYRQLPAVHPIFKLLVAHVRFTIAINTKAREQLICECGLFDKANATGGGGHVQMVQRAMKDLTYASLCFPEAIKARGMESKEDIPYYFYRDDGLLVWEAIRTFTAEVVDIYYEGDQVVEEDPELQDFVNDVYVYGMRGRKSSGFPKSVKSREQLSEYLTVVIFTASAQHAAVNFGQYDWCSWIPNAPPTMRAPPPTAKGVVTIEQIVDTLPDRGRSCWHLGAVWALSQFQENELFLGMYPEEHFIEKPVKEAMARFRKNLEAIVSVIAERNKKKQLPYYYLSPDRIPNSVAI
# [4] = test system: Zymoseptoria tritici; assay: Antifungal activity against Zymoseptoria tritici assessed as inhibition of microbial growth by microtiter plate based analysis; type: functional, organism-based
# [5] = test system: Pyricularia oryzae; assay: Antifungal activity against Pyricularia oryzae assessed as inhibition of microbial growth by microtiter plate based analysis; type: functional, organism-based
# [6] = test system: Staphylococcus aureus; assay: Antibacterial activity against Staphylococcus aureus assessed as inhibition of bacterial growth by agar diffusion method; type: functional
# [7] = test system: Candida albicans; assay: Antifungal activity against Candida albicans assessed as inhibition of fungal growth by MTT method; type: functional
# [8] = test system: Trichostrongylus colubriformis; assay: Anthelmintic activity against third stage larvae of Trichostrongylus colubriformis by microscope based analysis; type: functional, organism-based
# [9] = test system: Cladosporium cucumerinum; assay: Antifungal activity against Cladosporium cucumerinum assessed as inhibition of microbial growth by bioautographic TLC method; type: functional
# [10] = test system: Candida albicans; assay: Antifungal activity against Candida albicans assessed as inhibition of fungal growth by MTT assay; type: functional
# [11] = test system: Trichophyton mentagrophytes; assay: Antifungal activity against Trichophyton mentagrophytes assessed as inhibition of microbial growth; type: functional
# [12] = test system: Bacillus subtilis; assay: Antibacterial activity against Bacillus subtilis assessed as inhibition of bacterial growth; type: functional
# [13] = test system: Panel NCI-60 (60 carcinoma cell lines); assay: Antiproliferative activity against human Panel NCI-60 (60 carcinoma cell lines) assessed as cell growth inhibition; type: functional
# [14] = test system: P388; assay: Antiproliferative activity against mouse P388 cells assessed as cell growth inhibition; type: functional, cell-based
# [15] = target: DNA polymerase beta (Homo sapiens, UniProt P06746); assay: Inhibition of DNA polymerase beta (unknown origin)
# [16] = test system: RAW264.7; assay: Inhibition of LPS-induced NO production in mouse RAW264.7 cells incubated for 24 hrs by Griess reagent based assay; type: functional, cell-based; settings: RAW264.7, 24 h
# [17] = test system: Phytophthora infestans; assay: Antifungal activity against Phytophthora infestans assessed as inhibition of microbial growth by microtiter plate based analysis; type: functional, organism-based
# [18] = Antioxidant activity assessed as DPPH radical scavenging activity; type: functional
# [19] = test system: HL-60; assay: Antiproliferative activity against human HL-60 cells assessed as cell growth inhibition; type: functional, cell-based
# [20] = test system: Trypanosoma brucei brucei; assay: […] activity against Trypanosoma brucei brucei GUTat 3.1 assessed as inhibition of parasite growth measured after 72 hrs by alamar blue assay; type: functional, organism-based
# [21] = test system: U-251; assay: Antiproliferative activity against human U-251MG cells assessed as cell growth inhibition; type: functional; settings: read-out: ED50 (the source's name)
# [22] = test system: HT-29; assay: Antiproliferative activity against human HT-29 cells assessed as cell growth inhibition; type: functional, cell-based; settings: read-out: ED50 (the source's name)
# [23] = test system: RPMI-7951; assay: Antiproliferative activity against human RPMI-7951 cells assessed as cell growth inhibition; type: functional; settings: read-out: ED50 (the source's name)
compound,measurement,setting,value
C=C1C[C@@]23CC(OC(=O)/C=C/c4ccc(O)c(O)c4)[C@@H]1[C@@]2(C)CCCC3(C)C (some centres undefined),IC50,[1],6.3 µM
CC(=O)N1CCN(c2ccc(OCC3COC(Cn4ccnc4)(c4ccc(Cl)cc4Cl)O3)cc2)CC1 (centres undefined) [KETOCONAZOLE],LC50,[2],14.9 ppm
CC1=CCc2c(O)cc(CCc3ccc(O)cc3)cc2OC1,inhibition,[3],4%
Oc1ccc2c(c1)CCc1ccc(O)c(c1)-c1cc(ccc1O)CCc1ccc-2c(O)c1 [ISOPLAGIOCHIN D],IC50,[4],23.5 µg/mL
same,IC50,[5],4 µg/mL
O=C(N[C@H](CO)[C@H](O)c1ccc([N+](=O)[O-])cc1)C(Cl)Cl [CHLORAMPHENICOL],diameter of the inhibition zone (DIZ),[6],22 mm
CO[C@@H]1CC[C@]2(C)C3CCC4C(=CCC5C(C)(C)[C@H](O)CC[C@]45C)C[C@]3(C)CC[C@H]2C1(C)C (some centres undefined),MIC,[7],2 µg/mL
COc1cc(/C=C/c2ccccc2)ccc1O,IC50,[8],60 µg/mL
C=C1CC[C@H]2C(=C)CC[C@@H]3[C@H](OC(=O)[C@@H]3C)[C@@H]12,MIC,[9],3 µg/mL
CC(C)=CCc1c(O)cc(CCc2ccccc2)cc1O,inhibition,[3],4%
Oc1cc2ccc1Oc1cccc(c1)CCc1ccc(O)c(c1)Oc1ccc(cc1)CC2,MID,[10],0.25 µg/mL
same,MIC,[11],1 µg/mL
same,MIC,[12],1.5 µg/mL
C=C1CC[C@@H]2[C@H]1[C@H]1OC(=O)C(=C)[C@@H]1CC[C@@]2(C)OC(C)=O,MIC,[9],10 µg/mL
C=C1C(=O)[C@]23O[C@@H]2[C@H]1CCC(=O)[C@]1(C)CCCC(C)(C)[C@H]1C[C@H]3O,GI50,[13],2.5 µM
same,GI50,[14],0.27 µg/mL and 800 nM
same,IC50,[14],0.27 µg/mL
COc1ccc(CCc2c(Cl)ccc(O)c2Cl)cc1Cl,LC50,[2],0.42 ppm
Oc1ccc2c(c1)CCc1ccc(cc1)Oc1cc(cc(-c3cc4c(cc3O)CCc3ccc(cc3)Oc3cc(ccc3O)CCc3ccc-4c(O)c3)c1O)CCc1ccc-2c(O)c1,IC50,[15],5.16 µM
Cc1cc([C@@]2(C)CCCC2(C)C)ccc1O,IC50,[16],4.1 µM
Cc1ccc([C@@]2(C)CCCC2(C)C)c(O)c1O,IC50,[16],4.1 µM
CC1=CC[C@H]2C(C)(C)CCC[C@]2(C)[C@H]1C=O,IC50,[17],< 0.03 µg/mL
same,IC50,[4],17.6 µg/mL
CC1=CCc2c(O)cc(CCc3ccccc3)cc2OC1,inhibition,[3],4%
same,IC50,[1],4.5 µM
CC1(C)CCC[C@]2(C)[C@@H](C=O)C(C=O)=CC[C@@H]12 [POLYGODIAL],IC50,[8],70 µg/mL
Cc1cc(O)c(O)c([C@@]2(C)CCCC2(C)C)c1,IC50,[18],1.9 µg/mL
same,IC50,[19],1.4 µg/mL
same,diameter of the inhibition zone (DIZ),[6],17 mm
same,IC50,[16],4.1 µM
same,MIC,[12],2 µg/mL
NC[C@H]1O[C@H](O[C@H]2[C@H](O)[C@@H](O[C@H]3O[C@H](CO)[C@@H](O)[C@H](N)[C@H]3O)[C@H](N)C[C@@H]2N)[C@H](O)[C@@H](O)[C@@H]1O [KANAMYCIN],diameter of the inhibition zone (DIZ),[6],23 mm
CC1=CCC[C@]2(C)CC[C@@H](C(C)(C)O)C[C@@H]12,EC50,"[20]; GUTat 3.1, 72 h, read-out: EC50",0.45 µM
Cc1ccc(C(=O)Nc2ccc(S(=O)(=O)O)c3cc(S(=O)(=O)O)cc(S(=O)(=O)O)c23)cc1NC(=O)c1cccc(NC(=O)Nc2cccc(C(=O)Nc3cc(C(=O)Nc4ccc(S(=O)(=O)O)c5cc(S(=O)(=O)O)cc(S(=O)(=O)O)c45)ccc3C)c2)c1 [SURAMIN],EC50,"[20]; GUTat 3.1, time 72 hrs, read-out: ED50 (the source's name)",1.5 µg/mL
COC(=O)c1c(C)cc(O)c(C)c1O [ATRARIC ACID],MIC,[7],0.6 µg/mL
COc1cc(OC)c2c3c1C(=O)C[C@@H]1c4ccccc4O[C@@H](c4cccc(O)c4-2)[C@H]31,EC50,[21],2 µg/mL
same,EC50,[22],1 µg/mL
same,EC50,[23],1 µg/mL
CC1(C)CCC[C@]1(C)c1cc(CCc2cc(O)c(O)c([C@@]3(C)CCCC3(C)C)c2)cc(O)c1O,IC50,[18],2 µg/mL
same,IC50,[19],2.5 µg/mL
same,IC50,[16],4.1 µM
same,MIC,[12],2 µg/mL
O=C(/C=C/c1ccccc1)c1cc(O)cc2c1CC(c1ccccc1)O2 (centres undefined) [PALLIDISETIN A],EC50,[21],2 µg/mL
same,EC50,[23],1 µg/mL
Cc1cc([C@@]2(C)CCCC2(C)C)c(O)c(O)c1Cc1cc(O)c(O)c([C@@]2(C)CCCC2(C)C)c1,IC50,[18],2.7 µg/mL
same,IC50,[19],2.4 µg/mL
same,diameter of the inhibition zone (DIZ),[6],13 mm
same,IC50,[16],4.1 µM
same,MIC,[12],2 µg/mL
